Assay: Clinical trial ERC-205: DHEA 50 mg daily versus placebo on hot flushes in postmenopausal women (Example 10)
Type: in vivo
Settings: 50 mg
Experimental: Postmenopausal women experiencing moderate or severe hot flushes per week (as determined by a two week diary) were randomized to receive a daily dose of either placebo or 50 mg DHEA. Fifty evaluable participants (25 patients per arm) were treated for four months with a daily assessment of hot flushes recorded in a diary completed by each participant.
Postmenopausal women aged 40 to 70 years with moderate or severe hot flushes per week, as confirmed by a two-week screening hot flush diary were enrolled after signing informed consent. The protocol was approved by the Institutional Review Board (IRB) of Le Centre Hospitalier de l'Université Laval and by Health Canada.
The primary endpoint was the change from Baseline in the weekly frequency of moderate to severe hot flushes at Week 16, after four months of treatment. The objectives also included the change from Baseline in the weekly frequency of all hot flushes and the change from Baseline in the weekly weighted severity score.
The response endpoint is the patient's paper diary which was filled in daily to specify the number and type of hot flushes as follows:
The hot flush diary began as a Screening diary for two weeks prior to randomization whereby patients had to complete the diary daily, recording the number and severity of hot flushes. The patients had to record an average of 50 or more moderate or severe hot flushes per week over the two-week period to be eligible (i.e., at least 100 hot flushes documented on the two week Screening diary).
Once randomized, the patient completed eight, two-week hot flush diaries upon beginning study medication. The diaries had to be filled out on a daily basis. The first diary was completed over the first two weeks and be returned on the two week visit. The second two-week diary was completed over the next two weeks of the first four week treatment period and was returned at the four week visit. At 4, 8, 12 and 16 week visits, two two-week diaries for hot flushes were collected.

[1] = strata 50 to 70 hot flushes per week at screening, Week 16
[2] = strata ≥71 hot flushes per week at screening, Screening (mean of 2 w), baseline
[3] = strata ≥71 hot flushes per week at screening, Week 1
[4] = strata ≥71 hot flushes per week at screening, Week 2
[5] = strata ≥71 hot flushes per week at screening, Week 3
[6] = strata ≥71 hot flushes per week at screening, Week 4
[7] = strata ≥71 hot flushes per week at screening, Week 5
[8] = strata ≥71 hot flushes per week at screening, Week 6
[9] = strata ≥71 hot flushes per week at screening, Week 7
[10] = strata ≥71 hot flushes per week at screening, Week 8
[11] = strata ≥71 hot flushes per week at screening, Week 9
[12] = strata ≥71 hot flushes per week at screening, Week 10
[13] = strata ≥71 hot flushes per week at screening, Week 11
[14] = strata ≥71 hot flushes per week at screening, Week 12
[15] = strata ≥71 hot flushes per week at screening, Week 13

SMILES: C[C@]12CC[C@H](O)CC1=CC[C@@H]1[C@@H]2CC[C@]2(C)C(=O)CC[C@@H]12 [DHEA, dehydroepiandrosterone]
- WEIGHTED SEVERITY SCORE OF HOT FLUSHES PER WEEK (MEAN) (strata 50 to 70 hot flushes per week at screening, Week 15): 83.7
- NUMBER OF ALL HOT FLUSHES PER WEEK (MEAN) [1]: 35.7
- NUMBER OF MODERATE TO SEVERE HOT FLUSHES PER WEEK (MEAN) [1]: 32.7
- WEIGHTED SEVERITY SCORE OF HOT FLUSHES PER WEEK (MEAN) [1]: 81.6
- NUMBER OF ALL HOT FLUSHES PER WEEK (MEAN) [2]: 91.0
- NUMBER OF MODERATE TO SEVERE HOT FLUSHES PER WEEK (MEAN) [2]: 88.5
- WEIGHTED SEVERITY SCORE OF HOT FLUSHES PER WEEK (MEAN) [2]: 241.6
- NUMBER OF ALL HOT FLUSHES PER WEEK (MEAN) [3]: 68.6
- NUMBER OF MODERATE TO SEVERE HOT FLUSHES PER WEEK (MEAN) [3]: 64.1
- WEIGHTED SEVERITY SCORE OF HOT FLUSHES PER WEEK (MEAN) [3]: 175.2
- NUMBER OF ALL HOT FLUSHES PER WEEK (MEAN) [4]: 57.9
- NUMBER OF MODERATE TO SEVERE HOT FLUSHES PER WEEK (MEAN) [4]: 53.5
- WEIGHTED SEVERITY SCORE OF HOT FLUSHES PER WEEK (MEAN) [4]: 150.8
- NUMBER OF ALL HOT FLUSHES PER WEEK (MEAN) [5]: 57.5
- NUMBER OF MODERATE TO SEVERE HOT FLUSHES PER WEEK (MEAN) [5]: 52.5
- WEIGHTED SEVERITY SCORE OF HOT FLUSHES PER WEEK (MEAN) [5]: 149.8
- NUMBER OF ALL HOT FLUSHES PER WEEK (MEAN) [6]: 62.7
- NUMBER OF MODERATE TO SEVERE HOT FLUSHES PER WEEK (MEAN) [6]: 57.8
- WEIGHTED SEVERITY SCORE OF HOT FLUSHES PER WEEK (MEAN) [6]: 166.5
- NUMBER OF ALL HOT FLUSHES PER WEEK (MEAN) [7]: 60.0
- NUMBER OF MODERATE TO SEVERE HOT FLUSHES PER WEEK (MEAN) [7]: 53.2
- WEIGHTED SEVERITY SCORE OF HOT FLUSHES PER WEEK (MEAN) [7]: 154.1
- NUMBER OF ALL HOT FLUSHES PER WEEK (MEAN) [8]: 53.9
- NUMBER OF MODERATE TO SEVERE HOT FLUSHES PER WEEK (MEAN) [8]: 47.6
- WEIGHTED SEVERITY SCORE OF HOT FLUSHES PER WEEK (MEAN) [8]: 138.7
- NUMBER OF ALL HOT FLUSHES PER WEEK (MEAN) [9]: 52.2
- NUMBER OF MODERATE TO SEVERE HOT FLUSHES PER WEEK (MEAN) [9]: 46.7
- WEIGHTED SEVERITY SCORE OF HOT FLUSHES PER WEEK (MEAN) [9]: 137.2
- NUMBER OF ALL HOT FLUSHES PER WEEK (MEAN) [10]: 48.9
- NUMBER OF MODERATE TO SEVERE HOT FLUSHES PER WEEK (MEAN) [10]: 43.3
- WEIGHTED SEVERITY SCORE OF HOT FLUSHES PER WEEK (MEAN) [10]: 129.0
- NUMBER OF ALL HOT FLUSHES PER WEEK (MEAN) [11]: 47.0
- NUMBER OF MODERATE TO SEVERE HOT FLUSHES PER WEEK (MEAN) [11]: 41.1
- WEIGHTED SEVERITY SCORE OF HOT FLUSHES PER WEEK (MEAN) [11]: 121.8
- NUMBER OF ALL HOT FLUSHES PER WEEK (MEAN) [12]: 46.9
- NUMBER OF MODERATE TO SEVERE HOT FLUSHES PER WEEK (MEAN) [12]: 41.6
- WEIGHTED SEVERITY SCORE OF HOT FLUSHES PER WEEK (MEAN) [12]: 121.6
- NUMBER OF ALL HOT FLUSHES PER WEEK (MEAN) [13]: 42.8
- NUMBER OF MODERATE TO SEVERE HOT FLUSHES PER WEEK (MEAN) [13]: 36.4
- WEIGHTED SEVERITY SCORE OF HOT FLUSHES PER WEEK (MEAN) [13]: 110.2
- NUMBER OF ALL HOT FLUSHES PER WEEK (MEAN) [14]: 39.3
- NUMBER OF MODERATE TO SEVERE HOT FLUSHES PER WEEK (MEAN) [14]: 33.1
- WEIGHTED SEVERITY SCORE OF HOT FLUSHES PER WEEK (MEAN) [14]: 98.7
- NUMBER OF ALL HOT FLUSHES PER WEEK (MEAN) [15]: 39.3
- NUMBER OF MODERATE TO SEVERE HOT FLUSHES PER WEEK (MEAN) [15]: 33.9
- WEIGHTED SEVERITY SCORE OF HOT FLUSHES PER WEEK (MEAN) [15]: 102.8
- NUMBER OF ALL HOT FLUSHES PER WEEK (MEAN) (strata ≥71 hot flushes per week at screening, Week 14): 37.3

Source: patent US11452731B2, “Method of treating and preventing loss of cognition” (ENDORECHERCHE, INC., priority 2009, dated 2022)
